Laboratory results reported in patent publication US9635859B2, “Pesticidal compositions and processes related thereto” (Dow AgroSciences LLC, priority 2012, dated 2017).

Tested on: Beet Armyworm (Spodoptera exigua)
Assay: Bioassays on BAW, 128-well diet tray assay
Assay type: in vivo
Settings: percent mortality, second instar larvae, 50 μg/cm^2 on artificial diet, five to seven days, 25° C.; Table 3
Experimental: Certain molecules disclosed in this document were tested against BAW and CEW and CL using procedures described in the following examples. In the reporting of the results, the “BAW & CEW & CL Rating Table” was used (See Table Section).
Bioassays on BAW (Spodoptera exigua)
Bioassays on BAW were conducted using a 128-well diet tray assay. one to five second instar BAW larvae were placed in each well (3 mL) of the diet tray that had been previously filled with 1 mL of artificial diet to which 50 μg/cm^2 of the test compound (dissolved in 50 μL of 90:10 acetone-water mixture) had been applied (to each of eight wells) and then allowed to dry. Trays were covered with a clear self-adhesive cover, and held at 25° C., 14:10 light-dark for five to seven days. Percent mortality was recorded for the larvae in each well; activity in the eight wells was then averaged. The results are indicated in the table entitled “Table 3: Assay Results” (See Table Section).

| SMILES | BAW Rating |
| --- | --- |
| CCc1cc(/C=C/C(c2cc(Cl)c(F)c(Cl)c2)C(F)(F)F)ccc1C(=O)NCc1ccc(Cl)nc1 (stereo not shown) [AC72] | A (50-100) |
| Fc1c(Cl)cc(C(/C=C/c2ccc3c(c2)CCC3NCCC(F)(F)F)C(F)(F)F)cc1Cl (stereo not shown) [BC10, (E)-5-(3-(3,5-Dichloro-4-fluorophenyl)-4,4,4-trifluorobut-1-en-1-yl)-N-(3,3,3-trifluoropropyl)-2,3-dihydro-1H-inden-1-amine] | A (50-100) |
| COC(/C=C/c1ccc(-n2cncn2)cc1)(c1cc(Cl)cc(Cl)c1)C(F)(F)F (stereo not shown) [DC70, (E)-1-(4-(3-(3,5-Dichlorophenyl)-4,4,4-trifluoro-3-methoxybut-1-en-1-yl)phenyl)-1H-1,2,4-triazole] | A (50-100) |
| N#CCN1CCC(NC(=O)c2ccc(/C=C/C(c3cc(Cl)c(Cl)c(Cl)c3)C(F)(F)F)cc2Br)CC1 (stereo not shown) [AC107] | B (More than 0-Less than 50) |
| FC(F)(F)C(/C=C/c1ccc(-n2cncn2)cc1)c1ccc(Cl)cc1 (stereo not shown) [DC4] | A (50-100) |
| Cc1cc(/C=C/C(c2cc(Cl)cc(Cl)c2)C(F)(F)F)ccc1C(=O)NC1CS(=O)(=O)C1 (stereo not shown) [AC13] | A (50-100) |
| Cc1cc(/C=C/C(c2cc(Cl)cc(Cl)c2)C(F)(F)F)ccc1C(=O)NCc1ccc(Cl)cc1 (stereo not shown) [AC48] | A (50-100) |
| Cc1cc(/C=C\C(c2cc(Cl)cc(Cl)c2)C(F)(F)F)ccc1C(=O)NCC(=O)NC1CC1 (stereo not shown) [AC93] | A (50-100) |
| O=C(CNC(=O)c1ccc(/C=C/C(c2ccc(F)c(Cl)c2)C(F)(F)F)cc1Br)NCC(F)(F)F (stereo not shown) [AC99] | A (50-100) |
| Cc1cc(/C=C/C(c2cc(Cl)cc(Cl)c2)C(F)(F)F)ccc1C(=O)N(C)Cc1ccc(Cl)nc1 (stereo not shown) [AC117] | A (50-100) |
| O=C(NOc1ccc(/C=C/C(c2cc(Cl)c(Cl)c(Cl)c2)C(F)(F)F)cc1)C1CC1 (stereo not shown) [CC52, (E)-N-(4-(4,4,4-Trifluoro-3-(3,4,5-trichlorophenyl)but-1-en-1-yl)phenoxy)cyclopropanecarboxamide] | A (50-100) |
| Cc1cc(/C=C/C(c2cc(Cl)cc(Cl)c2)C(F)(F)F)ccc1C(=O)NC(C)(C)c1ccccn1 (stereo not shown) [AC16] | A (50-100) |
| O=C(NCc1ccc(C(F)(F)F)nc1)c1ccc(/C=C/C(c2cc(Cl)c(Cl)c(Cl)c2)C(F)(F)F)cc1Br (stereo not shown) [AC75] | A (50-100) |
| O=C(NCc1ccc(/C=C/C(c2cc(Cl)cc(Cl)c2)C(F)(F)F)cc1Cl)C1CC1 (stereo not shown) [CC8] | A (50-100) |
| FC(F)(F)C(/C=C/c1ccc(-n2cncn2)cc1)c1ccccc1 (stereo not shown) [DC3] | B (More than 0-Less than 50) |
| N#Cc1cc(/C=C\C(c2cc(Cl)c(F)c(Cl)c2)C(F)(F)F)ccc1-n1cncn1 (stereo not shown) [DC46] | A (50-100) |
| Fc1ccc(C(/C=C/c2ccc(-n3cncn3)cc2)C(F)(F)F)cc1 (stereo not shown) [DC7] | A (50-100) |
| Cc1cc(/C=C/C(c2cc(Cl)c(F)c(Cl)c2)C(F)(F)F)ccc1C(=O)NCc1ccc(Cl)nc1 (stereo not shown) [AC38] | A (50-100) |
| C=CCNC(=O)CNC(=O)c1ccc(/C=C/C(c2cc(Cl)c(Cl)c(Cl)c2)C(F)(F)F)cc1Br (stereo not shown) [AC111] | A (50-100) |
| C=CCNC(=S)NCc1ccc(/C=C/C(c2cc(Cl)c(Cl)c(Cl)c2)C(F)(F)F)cc1Cl (stereo not shown) [CC38] | A (50-100) |
| COc1c(Cl)cc(C(/C=C/c2ccc(-n3cncn3)c(C#N)c2)C(F)(F)F)cc1Cl (stereo not shown) [DC34] | A (50-100) |
| Cc1cc(/C=C/C(c2cc(Cl)cc(Cl)c2)C(F)(F)F)ccc1C(=O)NCc1ccccn1 (stereo not shown) [AC12] | A (50-100) |
| Cc1cc(/C=C/C(c2cc(Cl)c(F)c(Cl)c2)C(F)(F)F)ccc1C(=O)NCc1cc(Cl)ccn1 (stereo not shown) [AC77] | A (50-100) |
| O=C(NC1CSC1)c1ccc(/C=C/C(c2cc(Cl)cc(Cl)c2)C(F)(F)F)cc1F (stereo not shown) [AC61] | A (50-100) |
| Cc1cc(/C=C/C(c2cc(Cl)cc(Cl)c2)C(F)(F)F)ccc1C(=O)NN(C)c1ccccc1F (stereo not shown) [AC45] | A (50-100) |
